According to patent publication US9879325B2, “Method for predicting the responsiveness a patient to a treatment with an anti-CD20 antibody” (ASSISTANCE PUBLIQUE—HÔPITAUX DE PARIS, priority 2014, dated 2018):

Tests used:
DLBCL patients = experiment: Overall survival of DLBCL patients by gapdh mRNA level; format: in vivo, human
Source text: Thirteen patients who underwent biopsy for DLBCL between May 2007 and May 2011 at the Saint-Louis Hospital (Department of Onco-hematology, Hopital Saint-Louis, Paris, France) were selected. The patients received the necessary information concerning the study and consent was obtained. Morphologic classification of the tumors was assigned according to the World Health Organization (WHO) criteria (Campo et al., 2011). The tumors extensions were staged according to the Ann Arbor stage, and all patients were scored by IPIaa (project, 1993). Follow-up data for all the patients were collected regularly. Among these patients, 8 relapsed (61.5%) and 6 (46%) died.
Data are expressed as mean±standard deviation (SD). Differences in the calculated mean between each group were analyzed using Fisher test (quantitative variable). Survival functions were estimated by the Kaplan-Meier method and compared by the log-rank test. A P value of 0.05 or less was considered to indicate statistical significance. Kaplan-Meier survival curves and box plot representations were performed using “R” software.
[…] was measured from the date of diagnosis to that of death from any cause or to the stopping date. When the latter date was not reached, the data were censored at the date of the last follow-up evaluation. […]

HIF-1 = HIF-1 activity luciferase assay; format: cell-based; settings: non-toxic doses; hypoxia
Experimental: HIF-1 activity. HeLa cells stably expressing the p3HRE-Dptk-LUC vector, which contain three copies of the hypoxia-responsive element (HRE) from the erythropoietin gene (Dayan et al., 2006), were transiently transfected (calcium phosphate) with control vector (pMIG or empty pSUPER vector) or vectors (2 μg) to either overexpress or to silence GAPDH. The following day, transfected cells were exposed to normoxia or hypoxia 1% O2 for 24 hours before cell lysis in a reporter lysis buffer (Promega). It is worth noting that for determination of HIF-1 activity in hypoxia, cells were directly lysed in the hypoxic chamber). The luciferase assay was performed as previously described (Jacquin et al., 2013).

GAPDH/TRAF2 interaction = molecular target: T1, GAPDH/TRAF2 interaction (Mus musculus, UniProt P16858); experiment: GAPDH/TRAF2 co-immunoprecipitation in tissues of Eμ-Myc bearing mice; format: in vivo; settings: 24 hours after treatment
T1 construct: from tissue; lymph node tumors are collected elsewhere in the text
T1 sequence (P16858 whole entry): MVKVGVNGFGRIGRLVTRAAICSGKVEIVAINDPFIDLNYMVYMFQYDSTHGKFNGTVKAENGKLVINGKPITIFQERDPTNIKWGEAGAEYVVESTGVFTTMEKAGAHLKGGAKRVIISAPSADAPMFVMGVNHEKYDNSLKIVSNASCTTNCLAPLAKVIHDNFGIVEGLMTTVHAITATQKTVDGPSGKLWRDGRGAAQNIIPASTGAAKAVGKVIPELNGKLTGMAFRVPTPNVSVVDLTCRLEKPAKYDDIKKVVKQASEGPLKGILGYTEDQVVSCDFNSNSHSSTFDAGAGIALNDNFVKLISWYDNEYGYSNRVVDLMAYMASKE
Experimental: Consequently, we investigated GAPDH-TRAF2 binding in Eμ-Myc and HeLa cells and evidenced that GAPDH could be co-immunprecipitated with TRAF2 when cells are cultured in hypoxia. […] We further tested this interaction in vivo. For that matter Eμ-Myc bearing mice were treated once with PBS or with the covalent inhibitor koningic acid (i.p) and GAPDH/TRAF2 interaction was investigated by co-immunoprecipation in tissues, 24 hours after treatment. […] Protein G Sepharose 4B beads (Invitrogen, CA, USA) were first incubated with rabbit anti-TRAF2 or mouse anti-GAPDH antibody or IgG control (Santacruz, Calif., USA) for 4 hours at 4° C. Beads were then incubated overnight with 1 mg of precleared protein lysed in 20 mM Tris-HCl, pH 7.4, 137 mM NaCl, 1 mM EGTA, 10% glycerol, 1% Triton X-100, 1.5 mM MgCl2, 1 μg/μl PMSF, protease and phosphatase inhibitor cocktail (Thermo Scientific). Samples were then washed five times, boiled in Laemmli buffer and analyzed by immunoblotting with the indicated antibodies

[1] = tested on: CD20 cell surface expression; experiment: CD20 cell surface expression by flow cytometry in Raji cells; format: cell-based, human; settings: hypoxia 1% O2 48 h, non-toxic doses (0.1 μg/ml)
Experimental: Cells (0.5·10^6) cells (in triplicate) were washed 1×PBS and incubated at 4° C. with the monoclonal anti-CD20 (Affymetrix eBioscience) at a concentration of 2.5 μg/ml for 45 minutes. IgG isotypic controls were included. Cells were then washed 2×PBS and incubated at 4° C. for 30 minutes in the dark with a anti-mouse Alexa 488 (1 μg/ml). Then cells were washed twice in PBS and resuspend in 100 μl of PBS containing 0.5 μg/ml of DAPI (4′,6-diamidino-2-phenylindole). Ten thousand events were analyzed immediately by flow cytometry using a MACSQuant Analyzer (Miltenyi Biotec). The mean fluorescence intensity (MFI) obtained for lived (DAPI negative) CD20 positive cells was reported. Histograms represent the average of three independent experiments.
A total of 1×10^6 cells were washed in PBS and incubated for 45 minutes at 4° C. with the monoclonal anti-CD20 antibody (2.5 μg/ml) (Affymetrix eBioscience). The cells were then washed in PBS and incubated at 4° C. for 30 minutes with an anti-mouse Alexa Fluor 488 (1 μg/ml). […] After washing twice in the saponine-containing buffer, the cells are resuspended in PBS/2% FCS and analyzed by flow cytometry. Immediately afterwards, 10,000 events were analyzed by flow cytometry using a MACSQuant Analyzer (Miltenyi Biotec). The mean fluorescence intensity (MFI) obtained for CD20-low, CD20-high, GAPDH-low, GAPDH-high cells, was reported.

HIF-1α = HIF-1α protein expression (Western blot); format: cell-based; settings: non-toxic doses; hypoxia
Experimental: Briefly, after exposure to normoxia or hypoxia, cells were washed and lysed in laemmli buffer. Cells exposed to hypoxia were lysed in the hypoxic chamber. Proteins (40 μg) were separated on 8% to 12% SDS polyacrilamide gels and transferred onto polyvinylidene difluoride membranes (Millipore). Membranes were then blotted with antibody corresponding to the indicated proteins. Immunoreactive bands were detected with a horseradish peroxidase (HRP) anti-mouse (Dako) or anti-rabbit (Cell Signaling) by enhanced chemiluminescence (Pierce). When indicated, Western blot quantification was made using ImageJ software.

GAPDH = experiment: Measurement of GAPDH activity; format: biochemical; settings: non-toxic doses
Experimental: Cells were lysed in a buffer containing 10 mmol/L HEPES (pH 7.4), 150 mmol/L NaCl, 5 mmol/L EDTA, 1% NP40, 10 μg/mL aprotinin, 1 mmol/L phenylmethylsulfonyl fluoride and 10 mmol/L leupeptin (buffer A). Lysates were standardized for protein content and incubated with 0.25 mmol/L NAD, 3.3 mmol/L DTT, 13 mmol/L Na4P2O7 (pH 8.5), 26 mmol/L sodium arsenate, and 25 mmol/L D-glyceraldehyde-3-phosphate in a black 96-well plate (Cellstar). GAPDH activity was measured on a fluoroscan at 445 nm as the increase in fluorescence related to NADH accumulation. Activity is expressed as the change in absorbance per milligram of protein.

NF-κB [2] = experiment: NF-κB activity luciferase assay; format: cell-based
Experimental: HeLa cells stably expressing GAPDH-V5 or GAPDH double mutant (DM-V5) control (pMIG) were transiently co-transfected by the classical calcium phosphate method with 0.5 μg of a vector encoding cFP and 2 μg of a luciferase reporter gene controlled by a minimal tk promoter ans sex reiterated KB sites (icBx6 tk luc). Forty-eight hours after transfection, cells were exposed to either normoxia or hypoxia 1% O2 for 24 hours before harvesting and analyzing as previously described (Bottero et al., 2003).

GAPDH-TRAF2 interaction = experiment: GAPDH-TRAF2 co-immunoprecipitation in cells cultured in hypoxia; format: cell-based; settings: Eμ-Myc and HeLa cells
Experimental: Protein G Sepharose 4B beads (Invitrogen, CA, USA) were first incubated with rabbit anti-TRAF2 or mouse anti-GAPDH antibody or IgG control (Santacruz, Calif., USA) for 4 hours at 4° C. Beads were then incubated overnight with 1 mg of precleared protein lysed in 20 mM Tris-HCl, pH 7.4, 137 mM NaCl, 1 mM EGTA, 10% glycerol, 1% Triton X-100, 1.5 mM MgCl2, 1 μg/μl PMSF, protease and phosphatase inhibitor cocktail (Thermo Scientific). Samples were then washed five times, boiled in Laemmli buffer and analyzed by immunoblotting with the indicated antibodies

NF-κB [3] = experiment: Electrophoretic mobility shift assay (EMSA) of NF-κB binding in Raji cells; format: cell-based, human; settings: hypoxia 1% O2 24 hours, 0.2 μg/ml
Experimental: Total cell extracts from Raji cells treated or not with 0.2 μg/ml of KA and exposed to normoxia or hypoxia 1% O2 for 24 hours were prepared as previously described (Bottero et al., 2003). For mobility shift assay, a NF-κB probe consisting of a synthetic double stranded oligonucleotide containing the KB binding site of the Igκ promoter was used. The end-labeled probe (T4 kinase) was incubated with extracts samples for 20 minutes at 30° C. Complexes were separated by electrophoresis on a 5% non-denaturating polyacrylamide gel in 0.5×TBE. Dried gels were subjected to autoradiography.

[4] = tested on: ms4a1 (CD20 encoding gene); experiment: ms4a1 expression in lymphoma bearing mice; parameters: species or system mouse; settings: in vivo inhibition of GAPDH
Experimental: To get deeper into the mechanism of CD20 expression, we observed that upon 24 hours of hypoxia, primary Eμ-Myc cells are showing a 2-fold increase in mRNA level of ms4a1 when compared to normoxia. […] We then confirmed the effects of hypoxia on CD20 cell surface expression using the human Burkitt's lymphoma cell line Raji.
(§1) Total RNA was extracted from cells using the RNA extraction kit (Qiagen) according to the manufacturer's instructions. Total RNA (2 μg) was added to 20 μl reverse transcription-PCR using the Omniscript kit (Qiagen). The relative mRNA expression level of gapdh, hif-1α, ca9, vegf-α, ldh-a (mouse and human) were obtained by real-time quantification PCR (qPCR), using the TaqMan PCR Master Mix (Eurogentec) and TaqMan assay primer set (Applied Biosystems, Foster City, Calif.) on the 7500 Fast and the Step One (Applied Biosystems) according to the manufacturer's instructions (sequences provided upon request). For in vitro experiment, all samples were normalized to rplp0. All mRNA samples from human tumor tissues were normalized by ppia (cyclophilin-a).

hif-1α mRNA = hif-1α mRNA in vivo (qPCR); parameters: species or system mouse; settings: 5 mg/kg
Experimental: Consequently, we investigated GAPDH-TRAF2 binding in Eμ-Myc and HeLa cells and evidenced that GAPDH could be co-immunprecipitated with TRAF2 when cells are cultured in hypoxia. […] We further tested this interaction in vivo. For that matter Eμ-Myc bearing mice were treated once with PBS or with the covalent inhibitor koningic acid (i.p) and GAPDH/TRAF2 interaction was investigated by co-immunoprecipation in tissues, 24 hours after treatment.
as §1

Compound	patients still alive 350 days following the diagnosis (DLBCL patients; "low" gapdh group) [%]	patients still alive 350 days following the diagnosis (DLBCL patients; DLBCL with "high" levels of gapdh mRNA) [%]	HIF-1 activity (HIF-1)	GAPDH/TRAF2 interaction in vivo (GAPDH/TRAF2 interaction; 0.5 mg/kg i.p. once)	GAPDH/TRAF2 interaction in vivo (GAPDH/TRAF2 interaction; 5 mg/kg i.p. once)	hypoxic-dependent increase in CD20 cell surface expression [1]	HIF-1α expression (HIF-1α)	reduction of GAPDH activity (GAPDH)	NF-κB transcriptional activity (NF-κB [2]; hypoxic HeLa cells)	NF-κB activity (NF-κB [2]; specific and partial inhibition of GAPDH in hypoxia)	GAPDH-TRAF2 interaction (GAPDH-TRAF2 interaction)	NF-κB binding to its consensus sequence (NF-κB [3])	ms4a1 expression [4]	hif-1α mRNA in vivo (hif-1α mRNA)
Rituximab-based chemotherapy: anti-CD20 monoclonal antibody rituximab given with chemotherapy to DLBCL patients upon diagnosis	33	100												
CC(C)[C@H]1CC[C@@]2(CO2)[C@H]2C(=O)OCC(C(=O)O)=C[C@H]12 [Koningic acid]			decrease in HIF-1 activity	inactive dose	reduced the interaction	prevented this hypoxic-dependent increase in CD20 expression	decrease	50-60%	prevented NF-κB transcriptional activity	decreases NF-κB activity	loss of GAPDH-TRAF2 interaction	reduced its binding in hypoxia	reduction in ms4a1 expression	reduced hif-1α mRNA
